48 compounds from patent publication US8110681B2, “Compounds for the treatment of spinal muscular atrophy and other uses” (The United States of America as represented by the …, priority 2006, dated 2012) can be followed below.

As usually defined, the EC50 is the concentration needed to bring the measured effect to its halfway point. Higher therefore signals lower potency in that assay.

Structures are written as SMILES. Like-named read-outs stand apart in the source and are kept apart here.

The subject of this assay is SMN2-linked luciferase-reporter gene construct. Nature of the assay: SMN splice reporter assay (SMN2-linked luciferase reporter, Example 10). It is filed as cell-based. The following applies: for maximal fold induction: read-out: SMN Splice Reporter Assay (Example 10) Avg MaxFold Increase. In outline:
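Values are fold-increase in luciferase signal relative to baseline cells without compound. The cervical carcinoma line used holds a fusion of alternatively spliced SMN2 sequence and luciferase. Readable frame, and thus signal, arises only with exon 7-including splicing.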
In general terms: In a reporter assay the amount or activity of a reporter protein is the signal.

[1] abbreviates: maximum fold increase of reporter signal, average.
[2] abbreviates: SMN2-linked luciferase reporter, average.
Where [3] appears, read: SMN2-linked luciferase reporter, average maximum fold increase.

Turning to `CC(C)C(=O)Nc1ccc2c(c1)C(=O)N(c1ccc(C(C)C(=O)OC(C)(C)C)cc1)C2` (centres unmarked) [ALB-111989], under setting [1], the maximal fold induction was 1.06.
Same read-out and setting: in the case of `CC(C(=O)OC(C)(C)C)c1ccc(N2Cc3ccc(C#N)cc3C2=O)cc1` (centres unmarked) [ALB-112445] it was 1.13.
For `CC(C(=O)O)c1ccc(N2Cc3c(cccc3-c3cncnc3)C2=O)cc1` (centres unmarked) [ALB-112353], a half-maximal response under setting [2] (EC50) required 16000 nM. In addition, the maximal fold induction under setting [1] came to 1.53.
For `CC(C)c1ccc(N2Cc3cccc(N)c3C2=O)cc1` [ALB-117574], in that order: 163 nM and 1.73.
Regarding `CC(=O)c1cccc2c1C(=O)N(c1ccc(C(C)C(=O)O)cc1)C2` (centres unmarked) [ALB-113496], the maximal fold induction under setting [1] was found to be 1.18.
For `CCOCc1ccc2c(c1)C(=O)N(c1ccc(C(C)COC)cc1)C2` (centres unmarked) [ALB-114846], the EC50 under setting [2] stood at 493 nM. In addition, the maximal fold induction under setting [1] was 1.3.
As to `CC(C)c1ccc(N2Cc3ccc(N4CCCC4)cc3C2=O)cc1` [ALB-115715], the maximal fold induction under setting [1] was determined as 1.06.
Still for that read-out and setting: in the case of `Cc1cc(C(C)C(=O)OC(C)(C)C)ccc1N1Cc2ccccc2C1=O` (centres unmarked) [ALB-112483] it was 1.03.
`C=Cc1ccc2c(c1)C(=O)N(c1ccc(C(C)C(=O)O)cc1)C2` (centres unmarked) [ALB-113965]: under setting [2], the EC50 worked out at 79 nM. Also, the maximal fold induction under setting [1] was 1.83.
Regarding `CC(C(=O)OC(C)(C)C)c1ccc(N2Cc3ccc(Nc4ccc(Cl)cc4)cc3C2=O)cc1` (centres unmarked) [ALB-112166], the maximal fold induction under setting [1] turned out to be 1.04.
`CC(C(=O)O)c1ccc(N2Cc3ccc(OCC(F)(F)F)cc3C2=O)cc1` (centres unmarked) [ALB-113966]: under setting [2], the response was half-maximal at 663 nM (EC50). Moreover, the maximal fold induction under setting [1] amounted to 1.78.
Take `COc1ccc(-c2cc(C(C)C(=O)OC(C)(C)C)ccc2N2Cc3ccccc3C2=O)cc1` (centres unmarked) [ALB-112082]: the maximal fold induction under setting [1] turned out to be 1.12.
As for `COc1cc2c(cc1O)CN(c1ccc(C(C)C)cc1)C2=O` [ALB-118035], under setting [3], the maximal fold induction amounted to 1.13.
`CC(C)c1ccc(N2Cc3cc(Br)ccc3C2=O)cc1` [ALB-115810] showed an EC50 under setting [2] of 145 nM. Also, under setting [1], the maximal fold induction amounted to 1.44.
As for `CC(C(=O)O)c1ccc(N2Cc3ccc(CN(C)C)cc3C2=O)cc1` (centres unmarked) [ALB-114608], the maximal fold induction under setting [1] came out at 1.23.
As for `CCOc1cccc2c1C(=O)N(c1ccc(C(C)C)cc1)C2` [ALB-118278], the EC50 under setting [2] was determined as 1380 nM. For the same compound, the maximal fold induction under setting [1] turned out to be 1.5.
Turning to `CCN(C)C(=O)N(C)c1ccc2c(c1)C(=O)N(c1ccc(C(C)C)cc1)C2` [ALB-119049], under setting [3], the maximal fold induction came out at 1.08.
For `CC(C(=O)O)c1ccc(N2Cc3ccc(-c4ccc(Cl)c(Cl)c4)cc3C2=O)cc1` (centres unmarked) [ALB-112516], under setting [1], the maximal fold induction came out at 1.2.
`Cc1ccc2c(c1)C(=O)N(c1ccc(C(C)(C)C)cc1)C2` [ALB-116068] came in with an EC50 under setting [2] of 51 nM. Under setting [1], the maximal fold induction was found to be 1.35.
Consider `CC(C(=O)OC(C)(C)C)c1ccc(N2Cc3ccccc3C2=O)cc1-c1ccccc1` (centres unmarked) [ALB-112197], for which the maximal fold induction under setting [1] came out at 1.07.
In turn, `CC(C)=Cc1ccc2c(c1)C(=O)N(c1ccc(C(C)C(=O)O)cc1)C2` (centres unmarked) [ALB-115425] displayed an EC50 under setting [2] of 18 nM. Under setting [1], the maximal fold induction was determined as 1.95.
For `CC(C(=O)O)c1ccc(N2Cc3cc(C#N)ccc3C2=O)cc1` (centres unmarked) [ALB-112477], in that order: 6980 nM and 1.18.
For `COCc1ccc2c(c1)C(=O)N(c1ccc(C(C)COC)cc1)C2` (centres unmarked) [ALB-114942], in that order: 217 nM and 1.33.
For `CC(C)c1ccc(N2Cc3ccc(NC(=O)N(C)C)cc3C2=O)cc1` [ALB-118731], under setting [2], the response was half-maximal at 854 nM (EC50). Besides, the maximal fold induction under setting [3] was 1.2.
Consider `Cc1cc(N2Cc3ccccc3C2=O)ccc1C(C)C(=O)O` (centres unmarked) [ALB-112485], for which the maximal fold induction under setting [1] stood at 1.3.
Turning to `CC(CBr)c1ccc(N2Cc3ccccc3C2=O)cc1` (centres unmarked) [ALB-113651], under setting [2], the EC50 is 209 nM. Besides, under setting [1], the maximal fold induction was determined as 1.44.
Consider `CC(C)(C)OC(=O)C1(c2ccc(N3Cc4ccccc4C3=O)cc2)CCCC1` [ALB-112362], for which, under setting [1], the maximal fold induction amounted to 1.05.
For `CC(C(=O)O)c1ccc(N2C(=O)c3ccccc3C2C)cc1` (centres unmarked) [ALB-111964], the 50% effective concentration (EC50) under setting [2] was found to be 1420 nM. For the same compound, the maximal fold induction under setting [1] came out at 1.63.
Turning to `CC(C(=O)O)c1ccc(N2Cc3cc(-c4ccc(Cl)c(Cl)c4)ccc3C2=O)cc1` (centres unmarked) [ALB-111885], the maximal fold induction under setting [1] is 1.09.
Under setting [2], `CC(C(=O)O)c1ccc(N2Cc3ccc(C4CC4)cc3C2=O)cc1` (centres unmarked) [ALB-115716] showed an EC50 of 29 nM. For the same compound, the maximal fold induction under setting [1] was determined as 1.59.
Consider `COc1ccc(C(=O)Nc2ccc3c(c2)C(=O)N(c2ccc(C(C)C(=O)OC(C)(C)C)cc2)C3)cc1` (centres unmarked) [ALB-111954], for which, under setting [1], the maximal fold induction turned out to be 1.04.
Compound `CCc1ccc2c(c1)C(=O)N(c1ccc(C(C)C)cc1)C2` [ALB-115713] registered an EC50 under setting [2] of 61 nM. Further, under setting [1], the maximal fold induction was 1.37.
For `CCCCCOc1ccc2c(c1)C(=O)N(c1ccc(C(C)C(=O)O)cc1)C2` (centres unmarked) [ALB-113494], in that order: 1170 nM and 1.75.
As for `CCCc1ccc(N2Cc3ccc(OC)cc3C2=O)cc1` [ALB-115708], under setting [1], the maximal fold induction worked out at 1.1.
Compound `CCCCCCc1cccc2c1C(=O)N(c1ccc(C(C)C(=O)O)cc1)C2` (centres unmarked) [ALB-113495] came in with an EC50 under setting [2] of 18300 nM. In addition, the maximal fold induction under setting [1] came to 1.35.
Under setting [2], `COc1ccc2c(c1)C(=O)N(c1ccc(C3CC3)cc1)C2` [ALB-115803] returned an EC50 of 15 nM. Besides, the maximal fold induction under setting [3] worked out at 1.26.
As for `CC(C(=O)OC(C)(C)C)c1ccc(N2Cc3cccc(-c4ccc(Cl)c(Cl)c4)c3C2=O)cc1` (centres unmarked) [ALB-112149], the maximal fold induction under setting [1] was determined as 1.06.
In turn, `COc1cc2c(c(OC)c1)C(=O)N(c1ccc(C(C)C)cc1)C2` [ALB-118034] came in with an EC50 under setting [2] of 447 nM. For the same compound, the maximal fold induction under setting [1] stood at 1.3.
For `COc1ccc(C(=O)Nc2ccc3c(c2)C(=O)N(c2ccc(C(C)C(=O)O)cc2)C3)cc1` (centres unmarked) [ALB-111984], in that order: 9460 nM and 1.19.
As for `COc1cccc2c1CN(c1ccc(C(C)C(=O)O)cc1)C2=O` (centres unmarked) [ALB-111895], the maximal fold induction under setting [1] came to 1.15.
On to `CC(C)c1ccc(N2Cc3ccc(NC(=O)N(C)c4ccccc4)cc3C2=O)cc1` [ALB-118733], for which the maximal fold induction under setting [3] was 1.12.
Under setting [2], `CC(C(=O)O)c1ccc(N2Cc3ccc(-c4ccccc4)cc3C2=O)cc1` (centres unmarked) [ALB-112446] had an EC50 of 1700 nM. Further, under setting [1], the maximal fold induction stood at 1.45.
As to `CC(C(=O)OC(C)(C)C)c1ccc(N2Cc3ccccc3C2=O)c(-c2cccs2)c1` (centres unmarked) [ALB-112196], the maximal fold induction under setting [1] amounted to 1.09.
Compound `COc1ccc2c(c1)CN(c1ccc(C(C)C)cc1)C2=O` [ALB-117453] showed an EC50 under setting [2] of 180 nM. The maximal fold induction under setting [1] is 1.28.
For the compound `CC(C(=O)OC(C)(C)C)c1ccc(N2Cc3ccccc3C2=O)c(-c2ccc(Cl)cc2)c1` (centres unmarked) [ALB-112162], under setting [1], the maximal fold induction amounted to 1.03.
Under setting [2], `CC(CN1CCOCC1)c1ccc(N2Cc3ccccc3C2=O)cc1` (centres unmarked) [ALB-113758] registered an EC50 of 1400 nM. Also, the maximal fold induction under setting [1] was 1.29.
On the same counts, the results for `C=Cc1ccc2c(c1)C(=O)N(c1ccc(C(C)COC)cc1)C2` (centres unmarked) [ALB-115327] are 76 nM and 1.43.
For `CC(C(=O)O)c1ccc(N2Cc3ccc(I)cc3C2=O)cc1` (centres unmarked) [ALB-115216], in that order: 75 nM and 1.87.
